Reference: patent US20140162942A1, “INHIBITION OF CYP3A DRUG METABOLISM” (priority 2010, published 2014)
“Also recorded” adds a separate entry of the source. Where two headings read alike, the source gives them in different places.

Tested on: CYP3A4/5
Assay: CYP3A4/5 inhibition, midazolam 1′-hydroxylation in human liver microsomes (IC50 and Ki)
Format: in vitro ADME
Details: for Potential for Time-Dep. Inhibition: comparison with and without 30-minute pre-incubation
Method: The basis for many of the following incubation conditions is described in the following references: Madan, et al., 2002,^(1) Huang, 2004,^(3) Ogilvie, et al., 2006,^(6) Pearce, et al., 1996,^(7) Tucker, et al., 2001,^(4) and Walsky and Obach, 2004.^(5) In general, incubations were conducted at approximately 37° C. in 400-μL incubation mixtures (target pH 7.4) containing high purity water, potassium phosphate buffer (50 mM), MgCl2 (3 mM), EDTA (1 mM), an NADPH-generating system [always the mixture of the following: NADP (1 mM), glucose-6-phosphate (5 mM), glucose-6-phosphate dehydrogenase (1 Unit/mL)], and marker substrate at the final concentrations indicated. Pooled human liver microsomes (from sixteen individuals) were used as the source of enzymes (Section 1.3.1.2). The concentrations of marker substrates were based on the Km and Vmax data that were determined previously (data not shown).
Due to the possibility that boceprevir may bind to microsomal protein or lipids, an attempt was made to design these experiments such that, in as many cases as possible, the microsomal protein, incubation time, and phosphate buffer concentration were 0.1 mg/mL, 5 minutes and 50 mM, respectively, for assays performed with human liver microsomes (Table 1). […] Since it is not imperative that the concentration of marker substrates be exactly equal to Km, the marker substrate concentrations were rounded up or down, as applicable, to simplify the experimental design (data not shown). […] Thus, the final incubation concentration of phenacetin was 60 μM (Table 1).
The ability of boceprevir to inhibit the CYP enzymes listed in Section 1.2.1 was investigated with a pool of sixteen individual human liver microsomal samples at the concentrations indicated in Table 1. Aliquots of the stock and/or working solutions of boceprevir were manually added to buffer mixtures containing the components described in Section 1.3.21. Incubation mixtures were prepared in bulk to obviate the need for directly pipetting very small volumes (i.e., 1 μL or less). Incubations containing no boceprevir (0 μM) contained the vehicle used to dissolve boceprevir (i.e., 1% methanol).
The Tecan liquid handling system conducted all remaining incubation steps, with the exception of the centrifugation. Aliquots of the buffer mixtures were then automatically added to 96-well plates at the appropriate locations in duplicate. Aliquots of a substrate working solution were added to the 96-well plates, prior to initiating reactions, to give the final concentrations indicated in Table 1. Reactions were initiated with the addition of an aliquot of an NADPH-generating system. Reactions were automatically terminated at approximately 5 minutes, by the addition of the appropriate internal standard (Table 5) and stop reagent; acetonitrile. Precipitated protein was removed by centrifugation (920 g for 10 minutes at 10° C.). Standards and quality control samples were similarly prepared with the addition of authentic metabolite standards.
To examine its ability to act as a time-dependent inhibitor, boceprevir (at the same concentrations used to evaluate direct inhibition) was pre-incubated at 37±1° C., in duplicate, with human liver microsomes and an NADPH-generating system for approximately 30 minutes. This pre-incubation allowed for the generation of intermediates that could inhibit human CYP enzymes. The pre-incubations were initiated with the addition of an aliquot of an NADPH-generating system. […] Reactions were automatically terminated, at approximately 5 minutes, by the addition of the appropriate internal standard (Table 5) and stop reagent; acetonitrile. Precipitated protein was removed by centrifugation (920 g for 10 minutes at 10° C.). Incubations containing no boceprevir (0 μM) and incubations that contained boceprevir but were not pre-incubated, served as negative controls.

Q: With `CC(C)(C)NC(=O)NC(C(=O)N1CC2C([C@H]1C(=O)NC(CC1CCC1)C(=O)C(N)=O)C2(C)C)C(C)(C)C` (stereo partly drawn) [Boceprevir, (1R,2S,5S)—N-[(2Ξ)-4-amino-1-cyclobutyl-3,4-dioxobutan-2-yl]-3-{(2S)-2-[(tert-butylcarbamoyl)amino]-3,3-dimethylbutanoyl}-6,6-dimethyl-3-azabicyclo[3.1.0]hexane-2-carboxamide] as the compound, how does the “Potential for Time-Dep. Inhibition” value read?
A: yes^c

Q: What about the “Potential for Time-Dep. Inhibition” value (listed as boceprevir) of the same compound?
A: caused time-dependent inhibition

Q: What about the “Type of Inhibition” value (direct inhibition) of the same compound?
A: competitive; also recorded: competit

Q: What about the “Type of Inhibition” value (direct inhibition, listed as boceprevir) of the same compound?
A: competitive

Q: And the Ki at 5 min (human, pooled human liver microsomes, pH 7.4, probe midazolam (1′-hydroxylation), direct inhibition)?
A: 7.7 µM

Q: And the IC50 at 5 min (human, pooled human liver microsomes, pH 7.4, probe midazolam (1′-hydroxylation), direct inhibition, zero-minute pre-incubation)?
A: 11 µM

Q: What about the inhibition at 5 min, 100 µM (human, pooled human liver microsomes, pH 7.4, probe midazolam (1′-hydroxylation), direct inhibition, zero-minute pre-incubation, read-out: Max. Inhib. at 100 μM) of the same compound?
A: 91%

Q: And the IC50 at 5 min (human, pooled human liver microsomes, pH 7.4, probe midazolam (1′-hydroxylation), time-dependent inhibition, 30-minute pre-incubation)?
A: 0.97 µM

Q: What about the inhibition at 5 min, 100 µM (human, pooled human liver microsomes, pH 7.4, probe midazolam (1′-hydroxylation), time-dependent inhibition, 30-minute pre-incubation, read-out: Maximum Inhibition at 100 μM) of the same compound?
A: 99%
